Measurements reported in patent publication US20240261242A1, “METHODS OF INTRAVENOUSLY ADMINISTERING SOTALOL” (AltaThera Pharmaceuticals LLC, priority 2018, published 2024).

Legend:
[1] = cited from earlier work
[2] = cited from earlier work; remark: listed apart in the source
[3] = example IV sotalol treatment protocols with QTc interval monitoring; type: in vivo, human
Protocol: An example sotalol treatment protocol for a patient experiencing AF and who is currently in normal sinus rhythm (which patient could have resumed normal sinus rhythm spontaneously, or by way of chemical cardioversion, or electrocardioversion) is described herein. The patient is admitted to a hospital or other facility capable of providing cardiac resuscitation and continuous electrocardiographic monitoring. The patient's creatinine clearance is determined to be 60-89 mL/min (mild renal impairment). The patient is connected to an electrocardiographic and an initial QTc is determined to be less than 450 ms. If the patient were to be administered multiple sequential oral doses, the physician would have selected an oral sotalol dosing regimen of 80 mg at a 12-hour interval. However, due to the patient's NPO status, the physician determines the patient should instead be administered an IV sotalol dosing regimen as a substitute for the selected oral dosing regimen. IV doses in an amount of 75 mg sotalol hydrochloride are administered to the patient at 12-hour interval as a substitute for oral dosing. It is noted that notwithstanding the patient's mild kidney impairment, no adjustment to the IV dosing amount or interval is made. That is, even though the patient's CrCl is lower than normal, neither the dose is adjusted lower nor the dosing interval increased to accommodate for the mild renal impairment. The 75 mg IV dose is administered to the patient over a period of 5 hours. The patient's QTc interval is measured, along with heart rate and blood pressure at selected times to ensure that the patient is tolerating the drug. […] Once it is determined that the patient/subject is capable of tolerating the sotalol, one or more subsequent doses of sotalol hydrochloride in an amount of 75 mg is administered to the subject at a 12-hour interval. The patient's QTc interval can continue to be monitored.
An example sotalol treatment protocol for a patient experiencing VT who is not currently in normal sinus rhythm is described herein. The patient is admitted to a hospital or other facility capable of providing cardiac resuscitation and continuous electrocardiographic monitoring. The patient's creatinine clearance is determined to be 10-29 mL/min (severe renal impairment). The patient is connected to an electrocardiographic and an initial QTc is determined to be less than 450 ms. If the patient were to be administered multiple sequential oral doses, the physician would have selected an oral sotalol dosing regimen of 120 mg at a 48-hour interval. However, the physician determines the patient should instead be administered an IV sotalol dosing regimen as a substitute for the selected oral dosing regimen. IV doses in an amount of 105 mg sotalol hydrochloride are administered to the patient at 48-hour interval as a substitute for oral dosing. The 105 mg IV dose is administered to the patient over a period of 5 hours. The patient's QTc interval is measured, along with heart rate and blood pressure at selected times to ensure that the patient is tolerating the drug. […] Once it is determined that the patient/subject is capable of tolerating the sotalol, one or more subsequent doses of sotalol hydrochloride in an amount of 105 mg is administered to the subject at a 48-hour interval. The patient's QTc interval can continue to be monitored.
An example sotalol treatment protocol for a patient with atrial flutter (AFL) and persistent atrial fibrillation who is not currently in normal sinus rhythm is described herein. The patient is admitted to a hospital or other facility capable of providing cardiac resuscitation and continuous electrocardiographic monitoring. The patient's creatinine clearance is determined to be ≥90 mL/min. The patient is connected to an electrocardiographic and an initial QTc is determined to be less than 450 ms. […]

[4] = Example 2: 75 mg IV over 5 hours at 12-hour interval, CrCl 60-89 mL/min, AF patient in sinus rhythm
[5] = Example 5: 105 mg IV over 5 hours at 48-hour interval, CrCl 10-29 mL/min, VT patient
[6] = Example 6: 150 mg IV over 5 hours at 12-hour interval, CrCl ≥90 mL/min, AFL and persistent AF patient
[7] = Example 7: 112.5 mg IV over 5 hours at 12-hour interval, then escalated to 150 mg, CrCl 60-89 mL/min, PVC patient

Which results are given for CC(C)NCC(O)c1ccc(NS(C)(=O)=O)cc1.Cl (centres unmarked) [sotalol hydrochloride, d,1-N-[4-[1-hydroxy-2-[(1-methylethyl)amino]ethyl]phenyl] methane-sulfonamide monohydrochloride]?
time to steady-state plasma levels and maximum QTc prolongation ([1]; oral administration, twice daily (after 5-6 doses)): 3 days; bioavailable ([1]; oral, taken on an empty stomach): ~100%; solubility [2]: soluble in water, propylene glycol, and ethanol; QTc interval [3, 4]: ≤ 500 ms; ΔQTc [3, 4]: less than 20%; QTc interval [3, 5]: ≤ 500 ms; ΔQTc [3, 5]: less than 20%; QTc interval [3, 6]: ≤ 500 ms; ΔQTc [3, 6]: less than 20%; QTc interval [3, 7]: ≤ 500 ms; ΔQTc [3, 7]: less than 20%
